Data: patent US7141696B2, “Smooth muscle spasmolytic agents” (Bridge Pharma, Inc., priority 2003, dated 2006)

Experiments:
smooth muscle = settings: from prior patents; cited from earlier work
muscarinic receptors = settings: from prior publications and patents; cited from earlier work
bladder hyperactivity = settings: cited from earlier work
QTc interval = experiment: Effects on the QT-interval of the ECG; set-up: species or system guinea pigs; settings: guinea pig, in vivo
Method: Anesthetized male guinea pigs (450–600 g) are used. The trachea is cannulated. Lead II electrocardiogram are recorded at 50 mm/sec. The is a 30 minute stabilization time after surgery, during which three baseline EKG recordings are made at 10-min intervals. Test article or vehicle are administered as an iv infusion over 30 min. ECG recordings are used to determine QT intervals and heart rates. To compensate for variations in heart rates, QTc intervals are calculated from QT- and RR-intervals as known to those skilled in the art. Prolongation of QTc is indicative of a prolonged action potential. Prolongation of QTc is a known cause of Torsades de Pointes ventricular fibrillation by drugs such as terodiline, terfenadine and astemizole (all of which have been withdrawn because of arrhythmogenic side effect).

| SMILES | non-cholinergic spasmolytic activities (smooth muscle) | anticholinergic activity / inhibition of muscarinic receptors (muscarinic receptors) | bladder hyperactivity in patients suffering from urinary incontinence (bladder hyperactivity) | delay of cardiac repolarization (prolongation of the QTc interval of the ECG) (QTc interval) |
| --- | --- | --- | --- | --- |
| Cc1ccc(O)c(C(CCNC(C)C)c2ccccc2)c1 (centres unmarked) [DES-TOL] | express non-cholinergic spasmolytic activities | anticholinergic activity was further decreased |  |  |
| CC(C)N(CC[C@H](c1ccccc1)c1cc(CO)ccc1O)C(C)C [Example 5HM] |  | potent and non-selective inhibition of muscarinic receptors |  |  |
| Cc1ccc(O)c([C@@H](CCN(C(C)C)C(C)C)c2ccccc2)c1 [S-TOL] | express non-cholinergic spasmolytic activities | little anticholinergic activity |  |  |
| Cc1ccc(O)c([C@H](CCN(C(C)C)C(C)C)c2ccccc2)c1 [Tolterodine, R—N,N-diisopropyl-3-(2-hydroxy-5-methylphenyl)-3-phenylpropylamine] |  | potent and non-selective inhibition of muscarinic receptors | reduce bladder hyperactivity | potently prolongs the QTc interval |
